Assay results published in ChEMBL document CHEMBL3882727, “Imidazopyridine Kinase Inhibitors” (2008).

Legend:
[1] = biological target: T1, Insulin-like growth factor 1 receptor (Homo sapiens, UniProt P08069); experiment: Inhibition of human GST-rTEV-tagged IGF1R (957 to 1367 residues) expressed in baculovirus infected insect Sf9 cells assessed as decrease in biotin-aminohexyl-AEEEEYMMMMAKKKK-NH2 phosphorylation after 1 hr by fluorometer
Insulin receptor [2] = biological target: T2, Insulin receptor (Homo sapiens, UniProt P06213); experiment: Inhibition of human GST-rTEV-tagged insulin receptor (979 to 1382 residues) expressed in baculovirus infected insect Sf9 cells assessed as decrease in biotin-aminohexyl-AEEEEYMMMMAKKKK-NH2 phosphorylation after 1 hr by fluorometer
T2 sequence (P06213 28-758 limits assumed): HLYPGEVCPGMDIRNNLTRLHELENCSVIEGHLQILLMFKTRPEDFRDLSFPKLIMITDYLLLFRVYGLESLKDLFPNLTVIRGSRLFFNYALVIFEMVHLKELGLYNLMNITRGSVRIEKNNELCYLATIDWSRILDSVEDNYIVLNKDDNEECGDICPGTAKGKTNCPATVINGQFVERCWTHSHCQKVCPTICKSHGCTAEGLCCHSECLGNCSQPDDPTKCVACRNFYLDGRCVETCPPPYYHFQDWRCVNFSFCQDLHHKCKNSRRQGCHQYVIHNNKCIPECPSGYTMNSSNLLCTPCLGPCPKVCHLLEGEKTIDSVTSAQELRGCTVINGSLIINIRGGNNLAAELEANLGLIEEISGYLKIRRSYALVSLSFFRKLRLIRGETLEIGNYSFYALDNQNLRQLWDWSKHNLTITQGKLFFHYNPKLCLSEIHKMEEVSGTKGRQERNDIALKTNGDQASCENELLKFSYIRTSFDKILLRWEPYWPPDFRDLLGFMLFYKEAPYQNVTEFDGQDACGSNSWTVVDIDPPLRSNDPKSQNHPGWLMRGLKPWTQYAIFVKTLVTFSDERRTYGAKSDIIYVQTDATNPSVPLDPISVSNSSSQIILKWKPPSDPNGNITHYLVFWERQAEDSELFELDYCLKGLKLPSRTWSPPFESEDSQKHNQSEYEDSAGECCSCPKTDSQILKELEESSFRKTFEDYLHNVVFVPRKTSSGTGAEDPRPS
T2 sequence (P06213 763-1382 limits assumed): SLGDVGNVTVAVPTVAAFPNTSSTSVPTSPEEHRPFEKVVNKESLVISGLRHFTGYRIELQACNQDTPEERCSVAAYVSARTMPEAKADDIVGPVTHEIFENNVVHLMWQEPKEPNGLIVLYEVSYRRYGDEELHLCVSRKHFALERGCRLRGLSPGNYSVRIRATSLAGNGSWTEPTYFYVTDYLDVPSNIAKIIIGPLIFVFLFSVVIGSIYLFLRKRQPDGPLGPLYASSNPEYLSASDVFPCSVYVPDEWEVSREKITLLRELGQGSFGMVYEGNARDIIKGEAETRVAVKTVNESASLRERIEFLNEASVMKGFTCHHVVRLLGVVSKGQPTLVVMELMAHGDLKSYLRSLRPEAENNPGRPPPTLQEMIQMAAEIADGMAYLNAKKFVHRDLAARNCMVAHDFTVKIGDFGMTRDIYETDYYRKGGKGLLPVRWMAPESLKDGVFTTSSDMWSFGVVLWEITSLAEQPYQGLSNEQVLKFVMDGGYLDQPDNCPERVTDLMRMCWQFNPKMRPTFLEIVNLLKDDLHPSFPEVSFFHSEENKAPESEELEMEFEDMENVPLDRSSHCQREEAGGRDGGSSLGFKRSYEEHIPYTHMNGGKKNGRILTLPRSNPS

[3] = biological target: T1, Insulin-like growth factor 1 receptor; experiment: Inhibition of IGF1-induced human IGF1R autophosphorylation expressed in mouse NIH-3T3 cells preincubated for 2 hrs followed by IGF-1 induction measured after 15 mins by DELFIA; assay type: cell-based, NIH3T3
Insulin receptor [4] = biological target: T2, Insulin receptor; experiment: Inhibition of insulin-induced human insulin receptor autophosphorylation expressed in mouse NIH-3T3 cells preincubated for 2 hrs followed by insulin induction measured after 15 mins by DELFIA; assay type: cell-based, NIH3T3
[5] = Cytotoxicity against human NCI-H929 cells assessed as cell growth inhibition after 72 hrs by Cell Titre Glo assay; assay type: functional, cell-based; conditions: NCI-H929, 72 h
[6] = Cytotoxicity against human COLO205 cells assessed as cell growth inhibition after 72 hrs by Cell Titre Glo assay; assay type: functional, cell-based; conditions: COLO 205, 72 h
[7] = Toxicity in nude mouse allografted with mouse LISN cells assessed as body weight loss at 15 mg/kg, bid for 21 days measured during compound dosing; assay type: organism-based; conditions: in vivo, 504 h
[8] = Growth inhibition of human MDA-MB-453 cells assessed as combination index in presence of lapatinib after 3 days by methylene blue staining-based assay; assay type: functional
[9] = Toxicity in nude mouse allografted with mouse LISN cells assessed as body weight loss at 30 mg/kg, qd for 21 days measured during compound dosing; assay type: organism-based; conditions: in vivo, 504 h
[10] = Antitumor activity against human COLO205 cells xenografted in nude mouse assessed as tumor growth inhibition at 10 mg/kg, qd for 21 days relative to vehicle-treated control; assay type: functional; conditions: COLO 205, 504 h, read-out: TGI
[11] = Growth inhibition of human A549 cells assessed as combination index in presence of lapatinib after 3 days by methylene blue staining-based assay; assay type: functional
[12] = Toxicity in nude mouse allografted with mouse LISN cells assessed as body weight loss at 30 mg/kg, qd for every 3 days per week for 3 weeks measured during compound dosing; assay type: organism-based; conditions: in vivo
[13] = Toxicity in nude mouse xenografted with human BT474 cells assessed as body weight loss at 15 mg/kg, bid for 3 weeks without dosing on weekends measured during compound dosing; assay type: organism-based, BT-474; conditions: in vivo, 504 h
[14] = Toxicity in nude mouse xenografted with human BT474 cells assessed as body weight loss at 15 to 60 mg/kg, qd for 3 weeks without dosing on weekends measured during compound dosing; assay type: organism-based, BT-474; conditions: in vivo, 504 h
[15] = Toxicity in nude mouse xenografted with human COLO205 cells assessed as body weight loss at 10 to 30 mg/kg, bid for 21 days measured during compound dosing; assay type: organism-based, COLO 205; conditions: in vivo, 504 h
[16] = Toxicity in nude mouse xenografted with human COLO205 cells assessed as body weight loss at 100 mg/kg, qd for 21 days measured within 10 days of compound dosing relative to vehicle-treated control; assay type: organism-based, COLO 205; conditions: in vivo
[17] = Toxicity in nude mouse xenografted with human COLO205 cells assessed as body weight loss at 30 mg/kg, bid for 21 days measured within 10 days of compound dosing relative to vehicle-treated control; assay type: organism-based, COLO 205; conditions: in vivo
[18] = Growth inhibition of human MCF7 cells assessed as combination index in presence of lapatinib after 3 days by methylene blue staining-based assay; assay type: functional
[19] = Growth inhibition of human MDA-MB-468 cells assessed as combination index in presence of lapatinib after 3 days by methylene blue staining-based assay; assay type: functional

Row | IC50 [1] [nM] | IC50 (Insulin receptor [2]) [nM] | IC50 (Insulin receptor [4]) [nM] | SMILES | further results
1 | < 100 | < 100 | – | COc1cc(N2CCC(CCS(C)(=O)=O)CC2)ccc1Nc1nccc(-c2c(-c3ccc(OC)c(C(=O)Nc4c(F)cccc4F)c3)nc3cc(F)ccn23)n1 | –
2 | < 100 | < 100 | > 500 | COc1cc(N2CCC(N3CCCCC3)CC2)ccc1Nc1nccc(-c2c(-c3cccc(C(=O)Nc4c(F)cccc4F)c3)nc3cc(C(F)(F)F)ccn23)n1 | IC50 [3]: 100 to 500 nM
3 | < 100 | < 100 | < 100 | CCOc1cc(C2CCN(CCS(C)(=O)=O)CC2)ccc1Nc1nccc(-c2c(-c3ccc(OC)c(C(=O)Nc4c(F)cccc4F)c3)nc3ccccn23)n1 | –
4 | < 100 | < 100 | < 100 | COc1cc(N2CCC(N3CCN(S(C)(=O)=O)CC3)CC2)ccc1Nc1nccc(-c2c(-c3ccc(OC)c(C(=O)Nc4c(F)cccc4F)c3)nc3ccccn23)n1 | –
5 | – | – | – | COc1cc(N2CCC(N3CCN(CCF)CC3)CC2)c(Cl)cc1Nc1nccc(-c2c(-c3cccc(C(=O)Nc4c(F)cccc4F)c3)nc3ccccn23)n1 | IC50 [5]: < 250 nM; IC50 [6]: 250 to 1000 nM
6 | 100 to 1000 | < 100 | < 100 | CCOc1cc(N2CCN(CCS(C)(=O)=O)CC2)c(C)cc1Nc1nccc(-c2c(-c3ccc(OC(C)C)c(C(=O)Nc4c(F)cccc4F)c3)nc3ccccn23)n1 | IC50 [3]: < 100 nM
7 | < 100 | < 100 | – | CCOc1cc(N2CCC(CCS(C)(=O)=O)CC2)c(C)cc1Nc1nccc(-c2c(-c3ccc(OC)c(C(=O)Nc4c(F)cccc4F)c3)nc3cc(F)ccn23)n1 | –
8 | – | – | – | COc1cc(N2CCC(N3CCN(CCF)CC3)CC2)ccc1Nc1nccc(-c2c(-c3cccc(C(=O)Nc4c(F)cccc4F)c3)nc3ccccn23)n1 | Activity [7]: Non-Toxic; CI [8]: 0.31; Activity [9]: Non-Toxic; inhibition in vivo at 10 mg/kg [10]: 42%; CI [11]: <1; Activity [12]: Toxic; Activity [13]: Non-Toxic; Activity [14]: Non-Toxic; Activity [15]: Non-Toxic; Activity [16]: > 20%; Activity [17]: > 20%; CI [18]: 1; CI [19]: 0.78 - 1.25
9 | < 100 | < 100 | < 100 | CCOc1ccc(-c2nc3ccccn3c2-c2ccnc(Nc3ccc(C4CCN(CCS(C)(=O)=O)CC4)cc3OC)n2)cc1C(=O)Nc1c(F)cccc1F | –
10 | < 100 | < 100 | < 100 | COc1cc(N2CCC(N3CCN(CCS(C)(=O)=O)CC3)CC2)c(C)cc1Nc1nccc(-c2c(-c3cccc(C(=O)Nc4c(F)cccc4F)c3)nc3ccccn23)n1 | –
